Source: ChEMBL document CHEMBL4619792, “Amidate Prodrugs of O-2-Alkylated Pyrimidine Acyclic Nucleosides Display Potent Anti-Herpesvirus Activity” (ACS Med Chem Lett, 2020)

Columns and labels:
[1] = system: Human immunodeficiency virus; experiment: Antiviral activity against HIV infected in human CEM cells assessed as inhibition of virus induced cytopathicity incubated for 4 days by microscopic analysis; format: functional, organism-based; settings: ccrf-cem
[2] = system: Moloney murine sarcoma virus; experiment: Antiviral activity against Moloney murine sarcoma virus infected in murine C3H/3T3 embryo fibroblasts assessed as inhibition of virus-induced transformation incubated for 6 days by microscopic analysis; format: functional, organism-based
Cytomegalovirus [3] = experiment: Antiviral activity against Cytomegalovirus Davis infected in human HEL cells assessed as reduction in virus-induced cytopathogenicity measured after 6 to 7 days; format: functional, organism-based; settings: Human betaherpesvirus 5, Davis
Cytomegalovirus [4] = experiment: Antiviral activity against Cytomegalovirus AD169 infected in human HEL cells assessed as reduction in virus-induced cytopathogenicity measured after 6 to 7 days; format: functional, organism-based; settings: Human betaherpesvirus 5, AD169, HEL
Human alphaherpesvirus 3 [5] = experiment: Antiviral activity against thymidine kinase deficient Varicella zoster virus 07-1 infected in human HEL cells assessed as reduction in plaque formation measured after 5 days; format: functional, organism-based; settings: Human alphaherpesvirus 3, 07-1, HEL, 120 h
Human alphaherpesvirus 3 [6] = experiment: Antiviral activity against thymidine kinase positive Varicella zoster virus OKA infected in human HEL cells assessed as reduction in plaque formation measured after 5 days; format: functional, organism-based; settings: Human alphaherpesvirus 3, OKA, 120 h
[7] = Cytotoxicity against human HEL cells assessed as minimum cytotoxic concentration for change in cellular morphology incubated for 3 days by microscopic analysis; format: cell-based
[8] = Cytotoxicity against human HEL cells assessed as reduction in cell proliferation incubated for 3 days by Coulter counter method; format: cell-based
[9] = Selectivity index, ratio of CC50 for human HEL cells to EC50 for antiviral activity against thymidine kinase positive Varicella zoster virus OKA infected in human HEL cells; format: toxicity, cell-based; settings: read-out: Ratio CC50/EC50
[10] = Selectivity index, ratio of CC50 for human HEL cells to EC50 for antiviral activity against Cytomegalovirus Davis infected in human HEL cells; format: toxicity, cell-based; settings: read-out: Ratio CC50/EC50
[11] = Selectivity index, ratio of CC50 for human HEL cells to EC50 for antiviral activity against thymidine kinase deficient Varicella zoster virus 07-1 infected in human HEL cells; format: toxicity, cell-based; settings: read-out: Ratio CC50/EC50
Hepatitis B virus = experiment: Antiviral activity against Hepatitis B virus ayw1 infected in human HepG2.2.15 cells assessed as reduction in virus DNA replication measured after 6 days by qRT-PCR analysis; format: functional, organism-based; settings: ayw1, HepG2 2.2.15, 144 h
[12] = Selectivity index, ratio of CC50 for human HEL cells to EC50 for antiviral activity against Cytomegalovirus AD169 infected in human HEL cells; format: toxicity, cell-based; settings: read-out: Ratio CC50/EC50

SMILES | EC50 [1] [µM] | EC50 [2] [µM] | EC50 (Cytomegalovirus [3]) [µM] | EC50 (Cytomegalovirus [4]) [µM] | EC50 (Human alphaherpesvirus 3 [5]) [µM] | EC50 (Human alphaherpesvirus 3 [6]) [µM] | MCC at 72 h [7] [µM] | CC50 at 72 h [8] [µM] | selectivity ratio [9] | selectivity ratio [10] | selectivity ratio [11] | EC50 (Hepatitis B virus) [µM] | selectivity ratio [12]
Cc1c(N)nc(N)nc1OCCOCP(=O)(O)O | 0.16 to 0.43 | 0.16 to 0.43 |  |  |  |  |  |  |  |  |  |  | 
CCCCOC(=O)[C@@H](NP(=O)(COC(C)COc1nccc(N)n1)Oc1ccccc1)C(C)C (some centres undefined) |  |  | > 100 | > 100 | > 100 | > 100 | > 100 |  |  |  |  |  | 
Nc1ccnc(OC[C@H](CF)OCP(=O)(O)O)n1 |  |  | 0.8 | 2.36 | 25.3 | 3.79 | > 100 | > 100 |  |  |  |  | 
CCCCCOC(=O)[C@@H](NP(=O)(CO[C@H](CF)COc1nccc(N)n1)Oc1ccccc1)C(C)C (mixture of isomers) |  |  | 7.61 | > 100 | 35.9 | 38.6 | > 100 |  |  |  |  |  | 
Nc1ccnc(OC[C@@H](CF)OCP(=O)(O)O)n1 (mixture of isomers) |  |  | > 100 | > 100 | > 100 | > 100 | > 100 | > 100 |  |  |  |  | 
CCCCCOC(=O)[C@@H](NP(=O)(CO[C@@H](C)COc1ncc(F)c(N)n1)Oc1ccccc1)C(C)C (mixture of isomers) |  |  | > 100 | > 100 | > 100 | > 100 | > 100 |  |  |  |  |  | 
CCCCCOC(=O)[C@@H](NP1(=O)CO[C@@H](COc2nccc(N)n2)CO1)C(C)C (mixture of isomers) |  |  | > 100 | > 100 | > 100 | > 100 | > 100 |  |  |  |  |  | 
CCCCCOC(=O)[C@@H](NP(=O)(CO[C@@H](CF)COc1nccc(N)n1)Oc1ccccc1)C(C)C (mixture of isomers) |  |  | 0.097 | 0.26 | 0.18 | 0.36 | > 100 | 79.3 | 220 to 818 | 220 to 818 | 220 to 818 | 2.1 to 8.71 | 220 to 818
CCCCCOC(=O)C[C@H](NP(=O)(CO[C@@H](CF)COc1nccc(N)n1)Oc1ccccc1)C(=O)OCCCCC (mixture of isomers) |  |  | 0.094 | 0.54 | 0.098 | 0.36 | > 100 | 51.8 | 96 to 551 | 96 to 551 | 96 to 551 | 2.1 to 8.71 | 96 to 551
CCCCCOC(=O)[C@@H](NP(=O)(CO[C@H](C)COc1ncc(F)c(N)n1)Oc1ccccc1)C(C)C (mixture of isomers) |  |  | > 100 | > 100 | > 100 | > 100 | > 100 |  |  |  |  |  | 
CCCCCOC(=O)[C@@H](NP(=O)(CO[C@@H](CF)COc1ncc(F)c(N)n1)Oc1ccccc1)C(C)C (mixture of isomers) |  |  | 4.7 | 11.2 | 2.94 | 6.73 | > 100 | > 100 |  |  |  | 2.1 to 8.71 | 
CCCCCOC(=O)[C@@H](NP1(=O)CO[C@H](COc2nccc(N)n2)CO1)C(C)C (mixture of isomers) |  |  | 4.76 | 14 | 35.7 | 53.6 | > 100 | > 100 |  |  |  |  | 
CCCCCOC(=O)C[C@H](NP(=O)(CO[C@H](CF)COc1nccc(N)n1)Oc1ccccc1)C(=O)OCCCCC (mixture of isomers) |  |  | 48.2 | 62.8 | 24.7 | 38.2 | > 100 | > 100 |  |  |  |  | 
CCCCCOC(=O)[C@@H](NP(=O)(CO[C@H](C)COc1nccc(N)n1)Oc1ccccc1)C(C)C (mixture of isomers) |  |  | > 100 | > 100 | > 100 | > 100 | > 100 |  |  |  |  |  | 
CCCCCOC(=O)[C@@H](NP1(=O)CO[C@H](COc2ncc(F)c(N)n2)CO1)C(C)C (mixture of isomers) |  |  | > 100 | > 100 | > 100 | > 100 | > 100 |  |  |  |  |  | 
CCCCCOC(=O)[C@@H](NP(=O)(CO[C@@H](C)COc1nccc(N)n1)Oc1ccccc1)C(C)C (mixture of isomers) |  |  | > 100 | > 100 | > 100 | > 100 | > 100 |  |  |  |  |  | 
CCCCCOC(=O)[C@@H](NP(=O)(CO[C@H](CF)COc1ncc(F)c(N)n1)Oc1ccccc1)C(C)C (mixture of isomers) |  |  | > 100 | > 100 | > 100 | > 100 | > 100 |  |  |  |  |  | 
CCCCCOC(=O)[C@@H](NP1(=O)CO[C@@H](COc2ncc(F)c(N)n2)CO1)C(C)C (mixture of isomers) |  |  | > 100 | > 100 | > 100 | > 100 | > 100 |  |  |  |  |  | 
Nc1nc2c(ncn2COCCO)c(=O)[nH]1 [ACYCLOVIR] |  |  |  |  |  |  | > 444 | > 444 |  |  |  |  | 
O=c1[nH]c(=O)n([C@H]2C[C@H](O)[C@@H](CO)O2)cc1/C=C/Br [BRIVUDINE] |  |  |  |  | 0.18 | 0.089 | > 300 | > 300 |  |  |  |  | 
Nc1ccn(C[C@@H](CO)OCP(=O)(O)O)c(=O)n1 [CIDOFOVIR] |  |  | 0.94 | 1.74 |  |  | > 317 | > 317 |  |  |  |  | 
Nc1nc2c(ncn2COC(CO)CO)c(=O)[nH]1 [GANCICLOVIR] |  |  | 4.44 | 13 |  |  | > 394 | > 394 |  |  |  |  | 
